Experimental data from patent US8450281B2, “Non-immunosuppressive cyclosporin for treatment of Ullrich congenital muscular dystrophy” (Debiopharm S.A., priority 2007, dated 2013).

What was measured:
[1] = test system: myoblast cultures from UCMD patients; assay: Mitochondrial TMRM fluorescence (membrane potential) after oligomycin in myoblast cultures from UCMD patients; assay type: cell-based, human; settings: muscle cell cultures from UCMD patients
Method: To assess whether the anti-apoptotic effects of collagen VI and CsA could be traced to mitochondria, mitochondrial function was studied in living muscle cell cultures. […] Addition of oligomycin was instead followed by mitochondrial depolarization in the cells from all UCMD patients. […] Mitochondrial membrane potential was assessed based on accumulation of tetramethylrhodamine methyl ester (TMRM). It is noted that oligomycin was expected to cause hyperpolarization in healthy, respiring cells in which the mitochondrial membrane potential is maintained by proton pumping by the respiratory chain and the proton electrochemical gradient is used to drive ATP synthesis.
Panels A and B of FIG. 1 show mitochondrial membrane potentials in myoblasts from UCMD patients 1 (A) and 4 (B) as a function of time. Mitochondrial membrane potential was measured based on accumulation of tetramethylrhodamine methyl ester (TMRM). […] The extent of cell and, consequently, mitochondrial loading with potentiometric probes is affected by the activity of the plasma membrane multidrug resistance pump which is inhibited by cyclosporin A. Treatment with cyclosporins may therefore cause an increased mitochondrial fluorescence that can be erroneously interpreted as an increase of mitochondrial membrane potential. […] Data were acquired and analyzed using Cell R software (Olympus). […] Apoptosis was assessed as described before.

[2] = test system: myoblast cultures from UCMD patients; assay: TUNEL incidence of apoptosis in myoblast cultures from UCMD patients; assay type: cell-based, human; settings: myoblast cultures from UCMD patients 1-4
Method: Experiments were carried out to experimentally test the existence of a causal link between lack of collagen VI and apoptosis. Myoblast cultures were prepared from muscle biopsies of two unaffected controls and from patients 1, 2, 3 and 4 by enzymatic and mechanical treatment and plating in Dulbecco's modified Eagle's medium (DMEM) supplemented with 20% fetal calf serum, penicillin, streptomycin and amphotericin B (Sigma). To test for apoptosis, cells were fixed in 50% acetone-50% methanol and processed for TUNEL analysis using the Dead End Fluorescence TUNEL System (Promega). Visualization of all nuclei was performed by staining with Hoechst 33258. […] Demir et al. 2002. Giusti et al. 2005.
Panels A and B of FIG. 1 show mitochondrial membrane potentials in myoblasts from UCMD patients 1 (A) and 4 (B) as a function of time. Mitochondrial membrane potential was measured based on accumulation of tetramethylrhodamine methyl ester (TMRM). […] The extent of cell and, consequently, mitochondrial loading with potentiometric probes is affected by the activity of the plasma membrane multidrug resistance pump which is inhibited by cyclosporin A. Treatment with cyclosporins may therefore cause an increased mitochondrial fluorescence that can be erroneously interpreted as an increase of mitochondrial membrane potential. […] Data were acquired and analyzed using Cell R software (Olympus). […]

UCMD and BM patients = assay: Preliminary clinical trial, TMRM assay on muscle biopsies of UCMD and BM patients; assay type: in vivo, human; settings: daily oral dose of 5 mg/kg for thirty days
Method: Five patients were enroIled, of which four suffered from UCMD and one of BM. The patients had mutation in their COL6A1, COL6A2 or COL6A3 genes, respectively. The trial was designed to test whether treatment with CsA was effective in reducing mitochondrial dysfunction as assessed by the ability of oligomycin to cause mitochondrial depolarization in muscle fibers. Depolarization was detected as a change in TMRM fluorescence. Patients were treated with a daily oral dose of 5 mg/kg CsA for a period of thirty days. Muscle biopsies were taken immediately before and after the treatment period and were processed for TMRM assay.

[3] = test system: muscle cell cultures from UCMD patients and healthy donors; assay: Electron microscopy of mitochondria in muscle cell cultures; assay type: cell-based, human; settings: for percentage of cells with swollen mitochondria: oligomycin treatment
Source text: The muscle cell cultures established from healthy donors and from patients 1, 2 and 3 were studied by electron microscopy.

[4] = Initial phase I clinical studies, safety of oral doses; assay type: in vivo, human
Method: Initial phase I clinical studies were carried out to assess the safety of oral doses of [D-MeAla]^3-[EtVal]^4-CsA, and to determine the pharmacokinetic profile and safety profile of the drug substance. […] These side effects were not dose-related.

Molecule: cyclosporin A
- response to oligomycin (mitochondrial depolarization, TMRM) [1]: fully normalized
- occurrence of apoptosis (TUNEL) in the patient samples [2]: fully normalized the occurrence of apoptosis
- mitochondrial dysfunction as assayed by oligomycin-induced depolarization (UCMD and BM patients): capable of substantially reducing mitochondrial dysfunction
- muscle cells depolarizing on oligomycin, subsequent to treatment (UCMD and BM patients; average of five patients, 90% prior to treatment): 37%
- number of cells with swollen mitochondria ([3]; UCMD cells, no oligomycin): decreased the number of cells with swoIlen mitochondria to the values observed in cultures from healthy donors
- percentage of cells bearing swollen mitochondria after oligomycin ([3]; oligomycin-treated cultures plus cyclosporin A): restored to values similar to basal

Molecule: CC[C@H]1/C=C/C=C/C[C@@H](C)[C@H](O)[C@@](C)(O)C(=O)[C@@H](C)[C@H](O)[C@@H](C)C(=O)[C@@H](C)[C@H](O)[C@@H](C)/C=C/C(=O)O[C@@H]2[C@H](C)[C@H](CC1)O[C@]1(CC[C@H](C)[C@H](C[C@@H](C)O)O1)[C@H]2C [oligomycin]
- percentage of cells with swollen mitochondria ([3]; control (healthy donor) cultures): 4%
- percentage of cells with swollen mitochondria ([3]; cultures from UCMD patients): over 40%

Molecule: C/C=C/C[C@@H](C)[C@@H](O)[C@H]1C(=O)N[C@@H](CC)C(=O)N(C)[C@H](C)C(=O)N(CC)[C@@H](C(C)C)C(=O)N[C@@H](C(C)C)C(=O)N(C)[C@@H](CC(C)C)C(=O)N[C@@H](C)C(=O)N[C@H](C)C(=O)N(C)[C@@H](CC(C)C)C(=O)N(C)[C@@H](CC(C)C)C(=O)N(C)[C@@H](C(C)C)C(=O)N1C [[D-MeAla]^3-[EtVal]^4-CsA]
- tolerability ([4]; oral doses of 50 to 1600 mg in a micro-emulsion in water): well tolerated
- side effects ([4]; oral doses of 50 to 1600 mg, not dose-related): Mild and short-lived side effects were observed including nausea, vomiting, abdominal pain, and mild headaches

Molecule: CC(=O)OCOC(=O)CN(CC(=O)OCOC(C)=O)c1ccccc1OCCOc1ccccc1N(CC(=O)OCOC(C)=O)CC(=O)OCOC(C)=O [BAPTA-AM]
- response to oligomycin (mitochondrial depolarization, TMRM) [1]: fully normalized
